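The compound was tested at five concentrations on cells cultured in 96-well plates, with a 48-hour exposure period. GI50 = concentration required for 50% inhibition of growth.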 The source made the active and inactive calls. Rule as the data show it: active = GI50 up to about 1.1 µM and inactive = higher.
Tests used:
Assay in all cases: NCI-60 cell line screen, 48 h
NCI-H226 = tested on: NCI-H226
U-251 = tested on: U-251
SF-295 = tested on: SF-295
SN12C = tested on: SN12C
UACC-62 = tested on: UACC-62
SK-MEL-28 = tested on: SK-MEL-28
SF-539 = tested on: SF-539
SNB-75 = tested on: SNB-75
HCT-116 = tested on: HCT-116
COLO 205 = tested on: COLO 205
OVCAR-4 = tested on: OVCAR-4
A498 = tested on: A498
IGROV-1 = tested on: IGROV-1
OVCAR-5 = tested on: OVCAR-5
UO-31 = tested on: UO-31
MDA-MB-435 = tested on: MDA-MB-435
MCF7 = tested on: MCF7
MDA-MB-231 = tested on: MDA-MB-231
MDA-N = tested on: MDA-N
BT-549 = tested on: BT-549

| Compound | GI50 (NCI-H226) | GI50 (U-251) | GI50 (SF-295) | GI50 (SN12C) | GI50 (UACC-62) | GI50 (SK-MEL-28) | GI50 (SF-539) | GI50 (SNB-75) | GI50 (HCT-116) | GI50 (COLO 205) | GI50 (OVCAR-4) | GI50 (A498) | GI50 (IGROV-1) | GI50 (OVCAR-5) | GI50 (UO-31) | GI50 (MDA-MB-435) | GI50 (MCF7) | GI50 (MDA-MB-231) | GI50 (MDA-N) | GI50 (BT-549) |
| --- | --- | --- | --- | --- | --- | --- | --- | --- | --- | --- | --- | --- | --- | --- | --- | --- | --- | --- | --- | --- |
| C=C(C)C1CC=C(C(=O)O)CC1 (stereo unspecified) | 1040 µM (inactive) | 1060 µM (inactive) | 1090 µM (inactive) | 1570 µM (inactive) | 741 µM (inactive) | 1010 µM (inactive) | 1070 µM (inactive) | 1200 µM (inactive) | 793 µM (inactive) | 592 µM (inactive) | 1760 µM (inactive) | 1210 µM (inactive) | 774 µM (inactive) | 1660 µM (inactive) | 1190 µM (inactive) | – | – | – | – | – |
| CC(=O)c1sc2c(c1OC(=O)c1ccc(Cl)cc1)c(=O)n(-c1ccccc1)c(=S)n2-c1ccccc1 | 1.59 µM (inactive) | 2.82 µM (inactive) | 0.953 µM (active) | 2.06 µM (inactive) | 15.7 µM (inactive) | 2.79 µM (inactive) | 1.87 µM (inactive) | 2.99 µM (inactive) | 9.08 µM (inactive) | 3.53 µM (inactive) | 22.3 µM (inactive) | 1.08 µM (active) | 8.89 µM (inactive) | 2.77 µM (inactive) | 3.06 µM (inactive) | 4.14 µM (inactive) | 23.2 µM (inactive) | 3.91 µM (inactive) | – | – |
| CC1=CC(=O)NP(=O)(Oc2ccc(C)cc2)N1 (stereo unspecified) | > 100 µM (inactive) | > 100 µM (inactive) | > 100 µM (inactive) | > 100 µM (inactive) | > 100 µM (inactive) | > 100 µM (inactive) | > 100 µM (inactive) | > 100 µM (inactive) | > 100 µM (inactive) | > 100 µM (inactive) | > 100 µM (inactive) | > 100 µM (inactive) | > 100 µM (inactive) | > 100 µM (inactive) | > 100 µM (inactive) | – | – | – | – | – |
| COc1ccccc1/N=N/c1c(-c2ccccc2)nn(C(=O)CC(=O)Nc2cccc(C)c2)c1-c1ccccc1 | 36.3 µM (inactive) | 20 µM (inactive) | 28.2 µM (inactive) | 20.8 µM (inactive) | 38.8 µM (inactive) | > 100 µM (inactive) | 30 µM (inactive) | 11.8 µM (inactive) | 28 µM (inactive) | 71.3 µM (inactive) | 28.6 µM (inactive) | 40 µM (inactive) | 24.7 µM (inactive) | 36.3 µM (inactive) | 19.7 µM (inactive) | – | – | – | – | – |
| Cc1ccc(Sc2ccc(C)cc2[N+](=O)[O-])c([N+](=O)[O-])c1 | > 100 µM (inactive) | > 100 µM (inactive) | > 100 µM (inactive) | > 100 µM (inactive) | > 100 µM (inactive) | > 100 µM (inactive) | > 100 µM (inactive) | 46.5 µM (inactive) | > 100 µM (inactive) | > 100 µM (inactive) | > 100 µM (inactive) | > 100 µM (inactive) | > 100 µM (inactive) | > 100 µM (inactive) | > 100 µM (inactive) | – | – | – | – | – |
| COc1ccc(C2OC(c3ccncc3)=NN2C)cc1F (stereo unspecified) | > 100 µM (inactive) | > 100 µM (inactive) | > 100 µM (inactive) | > 100 µM (inactive) | > 100 µM (inactive) | > 100 µM (inactive) | > 100 µM (inactive) | – | > 100 µM (inactive) | > 100 µM (inactive) | > 100 µM (inactive) | > 100 µM (inactive) | > 100 µM (inactive) | > 100 µM (inactive) | > 100 µM (inactive) | > 100 µM (inactive) | > 100 µM (inactive) | > 100 µM (inactive) | > 100 µM (inactive) | – |
| CC1=NN(c2cccc(Cl)c2)C(=N/c2nc3ccccc3s2)/C1=C\C=C\c1ccccc1 | 79.8 µM (inactive) | – | 33.5 µM (inactive) | – | – | 29.3 µM (inactive) | 43.8 µM (inactive) | – | 28.2 µM (inactive) | – | 45.1 µM (inactive) | 24.7 µM (inactive) | 20 µM (inactive) | 46.5 µM (inactive) | 28.4 µM (inactive) | 33.8 µM (inactive) | 25.7 µM (inactive) | – | 37.2 µM (inactive) | – |
| Cc1ccc(N/C(Sc2ccccc2)=C(/C(Cl)=C(Cl)Cl)[N+](=O)[O-])c(C)c1 | 24.6 µM (inactive) | 13.8 µM (inactive) | 25.1 µM (inactive) | 18.4 µM (inactive) | 30.6 µM (inactive) | 18.5 µM (inactive) | 21.7 µM (inactive) | – | 17.1 µM (inactive) | 20.9 µM (inactive) | 23.7 µM (inactive) | 21.8 µM (inactive) | 19.5 µM (inactive) | 17.8 µM (inactive) | – | 14.4 µM (inactive) | 14.4 µM (inactive) | 18.9 µM (inactive) | – | 15.5 µM (inactive) |

— ChEMBL document CHEMBL1201862, “PubChem BioAssay data set” (2004)
